Results: patent publication US12440527B2, “Organic sol-gel nano-composition from panax notoginseng, rutin, ginkgo biloba effective in enhancing cerebral and cardiovascular protection and method of producing thereof” (priority 2020, dated 2025)

Legend:
Format in all cases: in vivo
white mice = test: Sedative effect on the advanced plus model (close/open branch)
Experimental: (§1) In the test, the white mice were randomly divided into 4 batches, each batch having 10 animals: Batch 1 (biological control) was subjected to oral administration of 20 mL/kg/day distilled water; batch 2 (positive control) was subjected to oral administration of 2.4 mg/kg/day diazepam; batch 3 was subjected to oral administration of the composition at dose of 0.96 pill/kg/day (equivalent to the clinical dose); batch 4 was subjected to oral administration of the composition at dose of 2.88 pill/kg/day (3 times as much as the clinical dose).

[1] = system: white mice injected with nikethamide; test: Anticonvulsant effect after nikethamide injection
Experimental: as §1, with “dose). After the mice were injected with nikethamide, the time of convulsion onset and the death time of the mice were taken.” for “dose).”

[2] = system: white mice injected with nitroglycerin (NTG), chronic migraine model; test: Vasomotor pain relieving effect on chronic migraine model (nitroglycerin injection, dolorimeter); conditions: oral 40 mg/kg propranolol, NTG 10 mg/kg
Experimental: In the test, the white mice were randomly divided into 5 batches, each batch having 10 animals: Batch 1 (biological control) was subjected to oral administration of 0.2 ml/10 g water; batch 2 (model) injected 10 mg/kg with nitroglycerin (NTG) was subjected to oral administration of 0.2 mL/10 g water; batch 3 (positive control) injected with 10 mg/kg nitroglycerin was subjected to oral administration of 40 mg/kg propranolol; batch 4 injected with 10 mg/kg nitroglycerin was subjected to oral administration of the composition at dose of 0.96 pill/kg/day (equivalent to the clinical dose); batch 5 injected with 10 mg/kg nitroglycerin was subjected to oral administration of the composition at dose of 2.88 pill/kg/day (3 times as much as the clinical dose).

[3] = After 7 days of oral administration of the drug, Diazepam at 2.4 mg/kg/day
[4] = Before oral administration of the drug, Diazepam at 2.4 mg/kg/day batch

CN1C(=O)CN=C(c2ccccc2)c2cc(Cl)ccc21 [Diazepam, diazepam]
Avoidance rate at the open branch (white mice; [3]): 46.37 ± 9.21
Number of times of mouse introduction into the close branch (white mice; [3]): 6.40
Number of times of mouse introduction into the open branch (white mice; [3]): 6.90
Time of mouse introduction into the close branch (white mice; [3]): 121.20 s
Time of mouse introduction into the open branch (white mice; [3]): 150.10 s
Avoidance rate at the open branch (white mice; [4]): 69.21 ± 8.88
Number of times of mouse introduction into the close branch (white mice; [4]): 11.50
Number of times of mouse introduction into the open branch (white mice; [4]): 4.30
Time of mouse introduction into the close branch (white mice; [4]): 173.70 s
Time of mouse introduction into the open branch (white mice; [4]): 90.40 s
Effect on time of convulsion onset and death time vs model batch ([1]; 2.4 mg/kg/day diazepam, after nikethamide injection): took effects in prolonging the time of convulsion onset and the death time
Death time of the mice after nikethamide injection ([1]; Diazepam at 2.4 mg/kg/day oral): 14.91 ± 3.67 min
Time of convulsion onset ([1]; Diazepam at 2.4 mg/kg/day oral, after nikethamide injection): 2.08 ± 0.55 min

CC(C)NCC(O)COc1cccc2ccccc12 (centres unmarked) [Propranolol, propranolol]
Pain-inducing force in the dolorimeter (baseline pain threshold) ([2]; Day 3): 7.6 ± 1.5 g
Pain-inducing force on the dolorimeter (pain threshold after treatment) ([2]; Day 3): 6.8 ± 1.2 g
Pain-inducing force in the dolorimeter (baseline pain threshold) ([2]; Day 5): 6.5 ± 1.1 g
Pain-inducing force on the dolorimeter (pain threshold after treatment) ([2]; Day 5): 7.0 ± 1.0 g
Pain-inducing force in the dolorimeter (baseline pain threshold) ([2]; Day 7): 6.4 ± 1.0 g
Pain-inducing force on the dolorimeter (pain threshold after treatment) ([2]; Day 7): 6.7 ± 0.5 g
Pain-inducing force in the dolorimeter (baseline pain threshold) ([2]; Day 9): 7.1 ± 0.9 g
Pain-inducing force on the dolorimeter (pain threshold after treatment) ([2]; Day 9): 6.7 ± 0.5 g
Pain-inducing force in the dolorimeter (baseline pain threshold) ([2]; Day 11): 7.1 ± 1.0 g
Pain-inducing force on the dolorimeter (pain threshold after treatment) ([2]; Day 11): 7.8 ± 0.7 g
